Test results reported in article PMC3184174, “Pharmacological Blockade of TRPM8 Ion Channels Alters Cold and Cold Pain Responses in Mice” (PLoS ONE, 2011).
pIC50: −log10 of the molar value.

Tests used:
TRPM8 [1] = target: T1, TRPM8 (Mus musculus, UniProt Q8R4D5); test: whole-cell voltage clamp (V1/[…] shift with […] menthol) and Fura-2 calcium imaging ([…]) in mTRPM8-transfected HEK293T cells; format: cell-based
TRPM8 [2] = target: T1, TRPM8; test: whole-cell voltage clamp of menthol-evoked currents in mTRPM8-transfected HEK293T cells; also Fura-2 calcium imaging; format: cell-based

T1 sequence (Q8R4D5 whole entry): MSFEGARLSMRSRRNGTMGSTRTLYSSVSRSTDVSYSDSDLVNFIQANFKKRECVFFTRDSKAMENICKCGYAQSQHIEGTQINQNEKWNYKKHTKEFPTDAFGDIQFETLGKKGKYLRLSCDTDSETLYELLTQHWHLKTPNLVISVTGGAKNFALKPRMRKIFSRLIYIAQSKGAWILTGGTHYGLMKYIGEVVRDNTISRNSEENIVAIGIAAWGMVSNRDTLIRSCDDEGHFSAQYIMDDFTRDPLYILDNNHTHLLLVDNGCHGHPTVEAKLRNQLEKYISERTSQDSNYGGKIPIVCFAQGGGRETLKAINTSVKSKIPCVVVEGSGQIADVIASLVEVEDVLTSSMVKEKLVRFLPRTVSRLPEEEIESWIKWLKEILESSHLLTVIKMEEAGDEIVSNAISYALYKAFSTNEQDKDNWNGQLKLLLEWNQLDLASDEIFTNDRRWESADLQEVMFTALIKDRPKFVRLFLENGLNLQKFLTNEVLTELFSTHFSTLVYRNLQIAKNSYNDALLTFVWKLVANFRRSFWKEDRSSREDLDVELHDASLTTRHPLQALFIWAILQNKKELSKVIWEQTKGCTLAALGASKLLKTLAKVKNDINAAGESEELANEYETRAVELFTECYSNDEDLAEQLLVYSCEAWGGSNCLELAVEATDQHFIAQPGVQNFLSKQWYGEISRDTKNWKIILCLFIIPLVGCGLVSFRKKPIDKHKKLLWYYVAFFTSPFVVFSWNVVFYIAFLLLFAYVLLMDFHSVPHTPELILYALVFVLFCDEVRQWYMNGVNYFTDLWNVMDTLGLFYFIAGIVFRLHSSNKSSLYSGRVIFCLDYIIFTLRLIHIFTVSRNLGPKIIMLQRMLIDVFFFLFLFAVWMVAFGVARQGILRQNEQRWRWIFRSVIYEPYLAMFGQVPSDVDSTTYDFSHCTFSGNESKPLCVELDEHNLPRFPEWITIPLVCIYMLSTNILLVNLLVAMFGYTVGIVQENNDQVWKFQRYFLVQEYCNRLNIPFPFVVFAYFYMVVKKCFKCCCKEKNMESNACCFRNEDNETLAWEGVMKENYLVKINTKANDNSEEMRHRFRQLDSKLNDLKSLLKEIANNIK

Row | pIC50 (TRPM8 [2]) | Compound | V1/2 shift with 1 mM menthol (TRPM8 [1]) [mV]
1 |  | CC1CCC(C(C)C)C(O)C1 (centres unmarked) [menthol] | 79.1±21.1
2 | 9.40 | COc1cc(CN(CCN)C(=O)OC(C)c2ccccc2)ccc1OCc1ccccc1 (centres unmarked) [PBMC, 1-phenylethyl-4-(benzyloxy)-3-methoxybenzyl(2-aminoethyl)carbamate] | 
